Results: patent publication US20220220100A1 (SOLUTIA CANADA INC., priority 2019, published 2022)

Key:
[1] = Oxidation potential of ring-closed and ring-open isomers; assay type: physicochemical; details: no unit printed in table (V relative to Ag/AgCl)
[2] = Photostability: xenon arc weathering of chromophore solutions, LCMS analysis; assay type: physicochemical; details: for Ketone (%) / Minus-2HF (%) / Minus-HF (%) / Sulfone (%) / Chromophore Remaining (%): xenon arc, 82° C. bp; for Ketone (%) / Minus-2HF (%) / Minus-HF (%) / Sulfone (%): linearly interpolated to 0.5 MJ/m2 @ 340 nm; for Chromophore Remaining (%): linearly interpolated to 0.5 MJ/m2 @ 340 nm of exposure energy; for Photostability (in words): weathering experiments
Outline: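 Chromophores were dissolved at 1 to 10 wt % in Rhodiasolv IRIS at 90° C, then sealed under glovebox conditions in glass cells laminated with 400 nm UV-cutoff PVB. The cells were weathered continuously in a xenon arc chamber with no dark or spray cycles. Solutions were then diluted in acetonitrile and analysed by reverse-phase LC-MS.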

[3] = 10 wt %, interpolated to 0.5 MJ/m^2 of energy exposure at 340 nm
[4] = 3 wt %, interpolated to 0.5 MJ/m^2 of energy exposure at 340 nm
[5] = 1 wt %, interpolated to 0.5 MJ/m^2 of energy exposure at 340 nm

## CCOC(=O)CCCOc1cc2oc(-c3ccc(C(C)(C)C)cc3)c(C3=C(c4cc(-c5cc(C(C)(C)C)cs5)sc4-c4cc(C(C)(C)C)cs4)C(F)(F)C(F)(F)C3(F)F)c2cc1OCCCC(=O)OCC [Chromophore S386, diethyl 4,4′-((2-(4-(tert-butyl)phenyl)-3-(2-(4,4″-di-tert-butyl-[2,2′:5′,2″-terthiophen]-3′-yl)-3,3,4,4,5,5-hexafluorocyclopent-1-en-1-yl)benzofuran-5,6-diyl)bis(oxy))dibutanoate]
[1]
  RC [O] (oxidation potential of ring-closed isomer): 0.99
  RO [O] (oxidation potential of ring-open isomer): 1.4
[2]
  Formation of the Minus-HF degradation product (in words): prevents the Minus-HF product
  Photostability (in words): high photostability
[2]; 10 wt % in Rhodiasolv IRIS
  Ketone (%): 0.0%
  Minus-2HF (%): 0.0%
  Minus-HF (%): 0.0%
  Sulfone (%): 0.0%
  Chromophore Remaining (%): 98.6%
[2]; [3]
  Ratio of chromophore remaining relative to S340: 1.08

## CCOC(=O)CCCOc1cc2oc(-c3ccc(C(C)(C)C)cc3)c(C3=C(c4cc(-c5cc6c(s5)C(C)(C)CCC6(C)C)sc4-c4cc5c(s4)C(C)(C)CCC5(C)C)C(F)(F)C(F)(F)C3(F)F)c2cc1OCCCC(=O)OCC [Chromophore S387, ethyl 4-[(3-{2-[2,5-bis(4,4,7,7-tetramethyl-4,5,6,7-tetrahydro-1-benzothiophen-2-yl)thiophen-3-yl]-3,3,4,4,5,5-hexafluorocyclopent-1-en-1-yl}-2-(4-tert-butylphenyl)-6-(4-ethoxy-4-oxobutoxy)-1-benzofuran-5-yl)oxy]butanoate]
[1]
  RC [O] (oxidation potential of ring-closed isomer): 0.92
  RO [O] (oxidation potential of ring-open isomer): 1.29
[2]
  Formation of the Minus-HF degradation product (in words): prevents the Minus-HF product
  Photostability (in words): high photostability
[2]; 10 wt % in Rhodiasolv IRIS
  Ketone (%): 0.0%
  Minus-2HF (%): 0.0%
  Minus-HF (%): 0.0%
  Sulfone (%): 0.0%
  Chromophore Remaining (%): 100.0%
[2]; [3]
  Ratio of chromophore remaining relative to S340: 1.10

## COCCCOc1cc2oc(-c3ccc(C(C)(C)C)cc3)c(C3=C(c4cc(-c5cc6c(s5)C(C)(C)CCC6(C)C)sc4-c4cc5c(s4)C(C)(C)CCC5(C)C)C(F)(F)C(F)(F)C3(F)F)c2cc1OCCCOC [Chromophore S388, 3-(2-(2,5-bis(4,4,7,7-tetramethyl-4,5,6,7-tetrahydrobenzo[b]thiophen-2-yl)thiophen-3-yl)-3,3,4,4,5,5-hexafluorocyclopent-1-en-1-yl)-2-(4-(tert-butyl)phenyl)-5,6-bis(3-methoxypropoxy)benzofuran]
[1]
  RC [O] (oxidation potential of ring-closed isomer): 0.89
  RO [O] (oxidation potential of ring-open isomer): 1.28
[2]
  Formation of the Minus-HF degradation product (in words): prevents the Minus-HF product
  Photostability (in words): high photostability
[2]; 10 wt % in Rhodiasolv IRIS
  Ketone (%): 0.2%
  Minus-2HF (%): 0.0%
  Minus-HF (%): 0.0%
  Sulfone (%): 0.4%
  Chromophore Remaining (%): 97.7%
[2]; [3]
  Ratio of chromophore remaining relative to S340: 1.07

## CC(C)(C)c1ccc(-c2oc3cc(OCCN4CCOC4=O)c(OCCN4CCOC4=O)cc3c2C2=C(c3cc(-c4cc5c(s4)C(C)(C)CCC5(C)C)sc3-c3cc4c(s3)C(C)(C)CCC4(C)C)C(F)(F)C(F)(F)C2(F)F)cc1 [Chromophore S390, 3,3′-(((3-(2-(2,5-bis(4,4,7,7-tetramethyl-4,5,6,7-tetrahydrobenzo[b]thiophen-2-yl)thiophen-3-yl)-3,3,4,4,5,5-hexafluorocyclopent-1-en-1-yl)-2-(4-(tert-butyl)phenyl)benzofuran-5,6-diyl)bis(oxy))bis(ethane-2,1-diyl))bis(oxazolidin-2-one)]
[1]
  RC [O] (oxidation potential of ring-closed isomer): 0.93
  RO [O] (oxidation potential of ring-open isomer): 1.29
[2]; 10 wt % in Rhodiasolv IRIS
  Ketone (%): 0.0%
  Minus-2HF (%): 0.0%
  Minus-HF (%): 0.0%
  Sulfone (%): 0.0%
  Chromophore Remaining (%): 98.8%
[2]; [3]
  Ratio of chromophore remaining relative to S340: 1.08
[2]
  Photostability (in words): high photostability

## CC(=O)Oc1cc2oc(-c3ccc(C(C)(C)C)cc3)c(C3=C(c4cc(-c5cc(C(C)(C)C)cs5)sc4-c4cc(C(C)(C)C)cs4)C(F)(F)C(F)(F)C3(F)F)c2cc1OC(C)=O [Chromophore S396, 2-(4-(tert-butyl)phenyl)-3-(2-(4,4″-di-tert-butyl-[2,2′:5′,2″-terthiophen]-3′-yl)-3,3,4,4,5,5-hexafluorocyclopent-1-en-1-yl)benzofuran-5,6-diyl diacetate]
[1]
  RC [O] (oxidation potential of ring-closed isomer): 1.18
  RO [O] (oxidation potential of ring-open isomer): 1.48
[2]; 3 wt % in Rhodiasolv IRIS
  Ketone (%): 1.0%
  Minus-2HF (%): 0.0%
  Minus-HF (%): 0.0%
  Sulfone (%): 0.0%
  Chromophore Remaining (%): 97.9%
[2]; [4]
  Ratio of chromophore remaining relative to S340: 1.07
[2]
  Photostability (in words): high photostability

## COc1ccc2oc(-c3ccc(C(C)(C)C)cc3)c(C3=C(c4cc(-c5cc6c(s5)C(C)(C)CCC6(C)C)sc4-c4cc5c(s4)C(C)(C)CCC5(C)C)C(F)(F)C(F)(F)C3(F)F)c2c1 [Chromophore S400]
[1]
  RC [O] (oxidation potential of ring-closed isomer): 1.01
  RO [O] (oxidation potential of ring-open isomer): 1.29
[2]; 3 wt % in Rhodiasolv IRIS
  Ketone (%): 0.8%
  Minus-2HF (%): 1.4%
  Minus-HF (%): 0.0%
  Sulfone (%): 0.0%
  Chromophore Remaining (%): 96.7%
[2]; [4]
  Ratio of chromophore remaining relative to S340: 1.06
[2]
  Photostability (in words): high photostability

## COc1cc2oc(-c3ccc(C(C)(C)C)cc3)c(C3=C(c4cc(-c5cc6c(s5)C(C)(C)CCCC6(C)C)sc4-c4cc5c(s4)C(C)(C)CCCC5(C)C)C(F)(F)C(F)(F)C3(F)F)c2cc1OC [Chromophore S405]
[1]
  RC [O] (oxidation potential of ring-closed isomer): 0.91
  RO [O] (oxidation potential of ring-open isomer): 1.28
[2]; 1 wt % in Rhodiasolv IRIS
  Ketone (%): 2.9%
  Minus-2HF (%): 0.0%
  Minus-HF (%): 0.0%
  Sulfone (%): 0.0%
  Chromophore Remaining (%): 97.1%
[2]; [5]
  Ratio of chromophore remaining relative to S340: 1.07
  Sum of degradation product percentages relative to the sum of degradation product percentages for S340: 0.33
[2]
  Photostability (in words): high photostability
